Columns and labels:
[1] = system: NCI-H810 (Non-Small Cell Lung Carcinoma); assay: Bliss excess, mean over the matrix (fraction); higher = more synergy
Method in brief: (§1)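 After 24 hours at 37°C and 5% CO2 in 1536-well plates, cells in DMEM/F12 or RPMI plus 10% FBS received two-drug dose matrices for 72 hours. Viability came from CellTiter-Glo 2.0 luminescence and was scaled as inhibition, anchored at 0 by vehicle wells and at 1 by blank wells. Combination Emax is taken as the second-highest inhibition in the matrix, and Bliss excess as the observed combination effect less EA + EB − EA·EB, with EA and EB the single-agent effects.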

[2] = system: 786-0 (Kidney Carcinoma); assay: as above
Method in brief: as §1

[3] = system: SJRH30 (Rhabdomyosarcoma); assay: as above
Method in brief: as §1

[4] = system: NKM-1 (Acute Myeloid Leukemia); assay: as above
Method in brief: as §1

[5] = system: OVTOKO (Ovarian Carcinoma); assay: as above
Method in brief: as §1

[6] = system: HTC-C3 (Thyroid Gland Carcinoma); assay: as above
Method in brief: as §1

[7] = system: RPMI-8866 (Chronic Myelogenous Leukemia); assay: as above
Method in brief: as §1

[8] = system: KYSE-70 (Esophageal Squamous Cell Carcinoma); assay: as above
Method in brief: as §1

[9] = system: KYM-1 (Rhabdomyosarcoma); assay: as above
Method in brief: as §1

[10] = system: FLO-1 (Esophageal Adenocarcinoma); assay: as above
Method in brief: as §1

[11] = system: RL95-2 (Endometrial Carcinoma); assay: as above
Method in brief: as §1

[12] = system: AsPC-1 (Pancreatic Carcinoma); assay: as above
Method in brief: as §1

[13] = system: OCI-AML5 (Acute Myeloid Leukemia); assay: as above
Method in brief: as §1

[14] = system: CHL-1 (Melanoma); assay: as above
Method in brief: as §1

[15] = system: NCI-H1563 (Lung Adenocarcinoma); assay: as above
Method in brief: as §1

[16] = system: JHH-1 (Hepatocellular Carcinoma); assay: as above
Method in brief: as §1

[17] = system: COLO-684 (Endometrial Carcinoma); assay: as above
Method in brief: as §1

[18] = system: ES-2 (Ovarian Carcinoma); assay: as above
Method in brief: as §1

[19] = system: CML-T1 (Chronic Myelogenous Leukemia); assay: combination Emax (second highest fraction inhibited in the dose matrix, 72 h); higher = more inhibition; extreme values may be limits of the assay
Method in brief: as §1

[20] = system: COLO-684 (Endometrial Carcinoma); assay: as above
Method in brief: as §1
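Wherever Bliss excess, mean over the matrix is given: after 72 h of two-drug dosing.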

| SMILES | Bliss excess [1] | Bliss excess [2] | Bliss excess [3] | Bliss excess [4] | Bliss excess [5] | Bliss excess [6] | Bliss excess [7] | Bliss excess [8] | Bliss excess [9] | Bliss excess [10] | Bliss excess [11] | Bliss excess [12] | Bliss excess [13] | Bliss excess [14] | Bliss excess [15] | Bliss excess [16] | Bliss excess [17] | Bliss excess [18] | combination Emax [19] | combination Emax [20] |
| --- | --- | --- | --- | --- | --- | --- | --- | --- | --- | --- | --- | --- | --- | --- | --- | --- | --- | --- | --- | --- |
| Cn1cnc2c(F)c(Nc3ccc(Br)cc3Cl)c(C(=O)NOCCO)cc21 [Selumetinib] + CC(C)n1c(=O)n(C)c2cnc3cc(F)c(-c4ccc(OCCCN5CCCCC5)nc4)cc3c21 [AZD1390] (first compound max 10 µM, 7x7, partner max 0.3 µM) | -0.0525 | -0.0587 | -0.031 | -0.107 | -0.0509 | -0.0092 | -0.0193 | -0.0481 | -0.0207 | -0.0276 | -0.0663 | -0.0093 | -0.0198 | -0.0482 | -0.0229 | -0.0268 | -0.0257 | -0.0215 | 0.628 | 0.125 |
| CN(CCO)CC[C@H](CSc1ccccc1)Nc1ccc(S(=O)(=O)NC(=O)c2ccc(N3CCC([C@@H](O)c4ccccc4-c4ccc(Cl)cc4)CC3)cc2)cc1S(=O)(=O)C(F)(F)F [AZD4320] + C1CN(CCC1(C(=O)N[C@@H](CCO)C2=CC=C(C=C2)Cl)N)C3=NC=NC4=C3C=CN4 [Capivasertib] (first compound max 1 µM, 7x7, partner max 3 µM) | -0.0595 | -0.0318 | 0.0085 | 0.0099 | -0.0381 | -0.0498 | -0.0553 | -0.0273 | -0.021 | -0.039 | -0.0192 | -0.0665 | 0.0104 | -0.028 | -0.0423 | -0.149 | -0.0157 | -0.0346 | 0.977 | 0.447 |
| CN(CCO)CC[C@H](CSc1ccccc1)Nc1ccc(S(=O)(=O)NC(=O)c2ccc(N3CCC([C@@H](O)c4ccccc4-c4ccc(Cl)cc4)CC3)cc2)cc1S(=O)(=O)C(F)(F)F [AZD4320] + C[C@@H](Nc1cc(F)cc(F)c1)c1cc(C(=O)N(C)C)cc2c(=O)cc(N3CCOCC3)oc12 [AZD8186] (first compound max 1 µM, 7x7, partner max 3 µM) | -0.0461 | -0.0081 | 0.0718 | 0.0224 | 0.0019 | 0.0311 | 0.0244 | 0.0092 | 0.0193 | -0.0261 | -0.0036 | -0.0141 | 0.0823 | 0.0322 | 0.0295 | -0.0258 | 0.0193 | 0.0151 | 1 | 0.396 |

From the supplement of paper PMC11061612
